Data set [1] in a line: Metabolic stability in human liver microsomes. The data set is classed as in vitro ADME. As to conditions: human liver microsomes 0.5 mg/mL, 1 μM test compound, pH 7.4; read-out: Human LM Clint. On the procedure: (§1) 4) Metabolic Stability in Human/Mouse Liver Microsomes
(§2) The objective of this study is to measure in vitro metabolic stability of test compound(s) in human and mouse liver microsomes and provide quantitative information on the rate of metabolic turnover (i.e. determination of the apparent intrinsic clearance of test).
(§3) Test items were prepared at a stock concentration of 10 mM in DMSO. For determination of metabolic turnover, a final working solution was prepared by adding 2 μL of 10 mM DMSO stock solution for test compound or positive control compounds to 198 μL of acetonitrile (100 μM final concentration).
(§4) Incubations were performed as follows: First, liver microsomes were thawed on ice and a master solution containing liver microsomes in 100 mM PBS (phosphate-buffered saline) at pH 7.4 is prepared. Next, the liver microsomes solution was added to the incubation plates and 10 mM NADPH (Nicotinamide-adenine dinucleotide phosphate) was added (MW: 833.4 g/mol; Roche Diagnostics GmbH, Germany. Dissolved in phosphate buffer (100 mmol/L, pH 7.4)). The mixture was mixed for 10 seconds and pre-warmed in the incubation plate at 37° C. for 10 minutes. The metabolic reaction was initiated with the addition of 5 μL of the 100 μM working solution for test compound or positive control compounds to incubation plate (final test item concentration=1 μM). The reaction final mixture should contain 1 mM NADPH, 0.5 mg/mL microsomes protein and 1 μM test compound or positive control compound in 100 mM PBS at pH 7.4. The percentage of organic solvent in incubation mixture is 1% with DMSO ≤0.02%.
(§5) The reaction was quenched by transferring 50 μL of the incubated mixture at selected time points into the quenching plate containing 200 μL of cold methanol. After sampling of all the timepoints the quenching plate was centrifuged at 4000 rpm for 40 minutes to precipitate protein. A total of 90 μL of the supernatant was transferred to an analysis plate and ultra-pure H2O water is added into each well for LC/MS/MS analysis. All incubations and analysis were performed in duplicate.
(§6) All calculations were carried out using Microsoft Excel. The slope value, k, was determined by linear regression of the natural logarithm of the remaining percentage of the parent drug vs. incubation time curve.
(§7) The in vitro half-life (in vitro tin) was determined from the slope value: in vitro t1/2=−(0.693/k)
(§8) Conversion of the in vitro tin (in min) into the in vitro intrinsic clearance (in vitro CLint, in μL/min/mg proteins) was done using the following equation: […]

The nature of data set [2]: Metabolic stability in mouse liver microsomes. The data set is classed as in vitro ADME. As to conditions: mouse liver microsomes 0.5 mg/mL, 1 μM test compound, pH 7.4; read-out: Mouse LM Clint. On the procedure:
as §1, §2, §3, §4, §5, §6, §7, §8

The next data set deals with hERG (Homo sapiens (Human), UniProt Q12809). Kind of data set: Effect on membrane potassium current IKr in hERG-transfected HEK293 cells, Protocol 2 (SyncroPatch 384PE). The class given is cell-based. As to conditions: Protocol 2, hERG-transfected HEK293 cells. On the procedure: 8) Effect on the Membrane Potassium Current IKr in hERG Transfected Cell Lines
The compound, vehicle control and positive control were tested on hERG-transfected HEK293 cells. A human embryonic kidney cell line (HEK293) with a stable transfection of hERG (Zhou Z et al. Biophysical Journal 1998. 74, 230-241; McDonald T. V. et al, Nature 1997. 388, 289-292) was used (University of Wisconsin, Madison, USA). The cells were kept in culture in MEM (Minimum Essential Medium, Gibco) which was supplemented with (amounts indicated added to 500 ml MEM): 5 ml L-Glutamine-Penicillin-Streptomycin (Sigma), 50 ml Fetal Bovine serum (Bio-Whittaker), 5 ml Non-essential Amino Acids 100× (Gibco), 5 ml sodium pyruvate 100 mM (Gibco) and 4 ml geneticin 50 mg/ml (Gibco) using T175 flasks. The cells were incubated at 37° C. in 5% CO2 atmosphere (in air).
Cell Harvesting for Assay
Cells were harvested as described below using Accumax™ (Sigma) as the dissociating reagent. Cells were then resuspended in a mixture of 33% DMEM/F12 (Dulbecco's Modified Eagle Medium/Nutrient Mixture F-12—Sigma) media/67% extracellular physiological solution.
The flasks were washed twice carefully with ˜5-10 ml phosphate buffered saline (PBS) (Gibco™) containing 2 mM EDTA (Ethylenediaminetetraacetic acid) (Sigma). The cells were dissociated using ˜3 ml of Accumax™ (cell detachment solution) and incubated for ˜5 to 10 min. at 37° C. Cold external physiological solution (2-5 ml) was added and the flasks are incubated at ˜4° C. for 5-10 min. Then, the cell suspension in each flask was gently dissociated with a 5 ml pipette. The cell suspension was transferred to a low binding petri-dish (˜[…]). Each flask was washed with ˜additional 5 ml cold external physiological solution and this solution was also added to the petri-dish. The petri-dish was then incubated for another 5 to 10 minutes at ˜4° C. After another gentle dissociation of the cell suspension in the petri dish, the cells were transferred to a reservoir kept on an orbital shaker at 200 rpm at 16° C. Before experiments were performed, the cells recovered for ˜20 min.
A 10 mM solution of the compound was used and plated in a 384 well plate. Aliquots of the stock solutions are diluted with the recording solution (see section 3) using automated liquid handling (Biomek FXP; final DMSO concentration: 0.03 to 0.3%). A standard range of screening concentrations was used ranging from 1 μM to 30 μM.
A positive control (E-4031) was included within each run to evaluate the sensitivity of the assay.
External and Intracellular Solutions Used in the Experiments
In the table below the composition of the intracellular and external buffer solutions is shown in [mM] (“NMDG” means N-methyl-D-glucamine)
The whole cell patch clamp technique on transfected cells allows the study of ion-channels with no—or limited interference from other ion-channels. The effects of the compounds on the hERG current were studied with an automated planar patch clamp system, SyncroPatch 384PE (Obergrussberger et al, Journal of Laboratory Automation 2016. 21 (6). 779-793). All cells were recorded in the whole cell mode of the patch clamp technique. The module is incorporated in a liquid handling pipetting robot system, Biomek FXP, for application of cells and compounds, vehicle control and positive control.
The different concentrations of the compounds were applied in two cumulatively increasing concentrations for the compounds (1 μM and 10 μM, and 3 μM and 30 μM, respectively). The hERG current was determined as the maximal tail current at −30 mV and percent inhibition upon compound or vehicle and positive control addition was reported.
After cells are caught onto the individual holes of the recording chips using the chip fill solution, the seal is increased with the seal enhancer solution (increased [Ca^2+]; then the cells were washed twice with recording solution before using a pressure protocol to go into the whole cell mode. […]

The values below come from patent publication US12473295B2, “Substituted straight chain spiro derivatives” (Janssen Pharmaceutica NV, priority 2019, dated 2025).

Each structure is given as a SMILES string. Counter-ions that a name gives are not always drawn.

Sequence of hERG (Q12809 whole entry): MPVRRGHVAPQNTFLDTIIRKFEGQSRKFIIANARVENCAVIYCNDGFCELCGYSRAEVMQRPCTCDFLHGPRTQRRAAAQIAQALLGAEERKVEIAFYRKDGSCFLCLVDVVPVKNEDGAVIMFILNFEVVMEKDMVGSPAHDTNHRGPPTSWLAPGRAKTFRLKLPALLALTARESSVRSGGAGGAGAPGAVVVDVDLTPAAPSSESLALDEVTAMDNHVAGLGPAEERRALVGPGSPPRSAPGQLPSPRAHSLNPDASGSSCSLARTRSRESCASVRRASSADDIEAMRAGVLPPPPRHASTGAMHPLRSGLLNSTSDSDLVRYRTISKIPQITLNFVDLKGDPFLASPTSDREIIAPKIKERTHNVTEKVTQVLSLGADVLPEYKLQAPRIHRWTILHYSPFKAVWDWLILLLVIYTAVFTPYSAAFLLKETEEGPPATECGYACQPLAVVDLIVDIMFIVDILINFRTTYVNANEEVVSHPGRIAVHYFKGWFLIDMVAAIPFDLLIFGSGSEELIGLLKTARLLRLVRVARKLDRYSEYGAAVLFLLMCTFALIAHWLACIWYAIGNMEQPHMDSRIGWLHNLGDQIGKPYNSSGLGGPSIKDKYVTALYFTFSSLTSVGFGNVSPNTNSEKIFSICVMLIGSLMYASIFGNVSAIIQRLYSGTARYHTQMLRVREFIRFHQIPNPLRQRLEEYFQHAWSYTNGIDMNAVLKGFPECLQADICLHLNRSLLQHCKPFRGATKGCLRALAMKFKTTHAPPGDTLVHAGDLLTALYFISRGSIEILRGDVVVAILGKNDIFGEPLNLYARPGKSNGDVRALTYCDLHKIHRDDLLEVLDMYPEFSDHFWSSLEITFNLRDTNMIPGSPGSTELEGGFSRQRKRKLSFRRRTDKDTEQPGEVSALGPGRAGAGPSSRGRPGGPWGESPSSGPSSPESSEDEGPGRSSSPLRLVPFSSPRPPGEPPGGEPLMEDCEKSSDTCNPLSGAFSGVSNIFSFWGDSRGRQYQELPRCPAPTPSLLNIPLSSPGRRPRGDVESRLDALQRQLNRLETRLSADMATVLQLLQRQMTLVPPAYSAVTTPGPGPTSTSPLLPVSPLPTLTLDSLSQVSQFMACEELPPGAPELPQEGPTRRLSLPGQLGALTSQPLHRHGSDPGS

As to `CCN(C(=O)c1cc(F)ccc1Oc1nncnc1N1CCC2(C1)CN([C@H](CCCN)C(C)C)C2)C(C)C` [Compound 1, (R)-2-((5-(2-(6-amino-2-methylhexan-3-yl)-2,6-diazaspiro[3.4]octan-6-yl)-1,2,4-triazin-6-yl)oxy)-N-ethyl-5-fluoro-N-isopropylbenzamide formate], the microsomal CLint at 1 μM in data set [1] was below 7.5 µL/min/mg; in data set [2] it was 21 µL/min/mg.
Compound `CCN(C(=O)c1cc(F)ccc1Oc1nncnc1N1CCC2(C1)CN([C@H](CCCN(C)CCNC(C)=O)C(C)C)C2)C(C)C.O=C(O)/C=C/C(=O)O` [Compound 245, (R)-2-((5-(2-(6-((2-acetamidoethyl)(methyl)amino)-2-methylhexan-3-yl)-2,6-diazaspiro[3.4]octan-6-yl)-1,2,4-triazin-6-yl)oxy)-N-ethyl-5-fluoro-N-isopropylbenzamide fumarate] gave an IC50 against hERG above 30.2 µM. In addition, the results for the microsomal CLint at 1 μM in data set [1] and in data set [2] were 18 µL/min/mg and below 7.5 µL/min/mg, respectively.
At hERG, `CCN(C(=O)c1cc(F)ccc1Oc1nncnc1N1CCC2(C1)CN([C@H](CCCN(C)CCC(=O)N(C)C)C(C)C)C2)C(C)C` [Compound 246, (R)-2-((5-(2-(6-((3-(dimethylamino)-3-oxopropyl)(methyl)amino)-2-methylhexan-3-yl)-2,6-diazaspiro[3.4]octan-6-yl)-1,2,4-triazin-6-yl)oxy)-N-ethyl-5-fluoro-N-isopropylbenzamide formate] showed an IC50 above 30.2 µM.
Regarding `CCN(C(=O)c1cc(F)ccc1Oc1nncnc1N1CCC2(C1)CN([C@H](CCCN[C@H](C)COC)C(C)C)C2)C(C)C.O=C(O)/C=C/C(=O)O` [Compound 112, N-ethyl-5-fluoro-N-isopropyl-2-(5(2-((R)-6-(((R)-1-methoxypropan-2-yl)amino)-2-methylhexan-3-yl)-2,6-diazaspiro[3.4]octan-6-yl)-1,2,4-triazin-6-yl)oxy)benzamide fumarate], the IC50 at hERG is above 30.2 µM. In addition, the microsomal CLint at 1 μM in data set [1] is 17 µL/min/mg; in data set [2] it was below 7.5 µL/min/mg.
For `COCCNCCC[C@H](C(C)C)N1CC2(CCN(c3ncnnc3Oc3ccc(F)cc3C(=O)N(C(C)C)C(C)C)C2)C1` (single isomer, unassigned) [Compound 99, (*R)-5-fluoro-N,N-isopropyl-2-((5-(2-(6-((2-methoxyethyl)amino)-2-methylhexan-3-yl)-2,6-diazaspiro[3.4]octan-6-yl)-1,2,4-triazin-6-yl)oxy)benzamide oxalate] the same measures were above 30.2 µM, 27 µL/min/mg and 13 µL/min/mg.
On the same counts, the results for `CCN(C(=O)c1cc(F)ccc1Oc1nncnc1N1CCC2(C1)CN([C@H](CCCNCC(OC)OC)C(C)C)C2)C(C)C.O=C(O)/C=C/C(=O)O` [Compound 104, (R)-2-((5-(2-(6-((2,2-dimethoxyethyl)amino)-2-methylhexan-3-yl)-2,6-diazaspiro[3.4]octan-6-yl)-1,2,4-triazin-6-yl)oxy)-N-ethyl-5-fluoro-N-isopropylbenzamide fumarate] are above 30.2 µM, 19 µL/min/mg and below 7.5 µL/min/mg.
Turning to `CC(C)[C@@H](CCC(C)(C)N)N1CC2(CCN(c3ncnnc3Oc3ccc(F)cc3-c3cncnc3C3CC3)C2)C1` (single isomer, unassigned) [Compound 37, (*R)-5-(6-(6-(2-(4-cyclopropylpyrimidin-5-yl)-4-fluorophenoxy)-1,2,4-triazin-5-yl)-2,6-diazaspiro[3.4]octan-2-yl)-2,6-dimethylheptan-2-amine], the microsomal CLint at 1 μM in data set [1] and in data set [2] was below 7.5 µL/min/mg throughout.
Compound `CCN(C(=O)c1cc(F)ccc1Oc1nncnc1N1CCC2(C1)CN([C@H](CCCNCCC(F)F)C(C)C)C2)C(C)C.O=C(O)/C=C/C(=O)O` [Compound 114, (R)-2-(5-(2-(6-((3,3-difluoropropyl)amino)-2-methylhexan-3-yl)-2,6-diazaspiro[3.4]octan-6-yl)-1,2,4-triazin-6-yl)oxy)-N-ethyl-5-fluoro-N-isopropylbenzamide fumarate] had an IC50 at hERG above 30.2 µM. Moreover, the microsomal CLint at 1 μM in data set [1] stood at 26 µL/min/mg; in data set [2], 15 µL/min/mg.
